What was measured:
caspase-3 = experiment: Caspase-3 activity assay in 3T3L1 preadipocytes; assay type: cell-based, mouse; settings: 48 hours treatment
Description: (§1) 50 μM of stearate, oleate or linoleate was used to treat 3T3L1 cells as this concentration is centered within the normal range for non-esterified stearate in the plasma of humans. Stearate, oleate, or linoleate was loaded onto fatty acid free BSA according to the method reported by Spector and Hoak (Spector and Hoak, 1969). Briefly, stearate (0.5 g) was dissolved in chloroform (100 mL) and mixed well with 10 g diatomaceous earth in a 1 liter flask. The mixture was stirred and dried under nitrogen until powder. Fatty acid free BSA (1 g) was dissolved in 100 mL with DMEM without phenol red and mixed with 3 g of the stearate/diatomaceous earth mixture and stirred for 30 minutes. The stearate/BSA solution was filtered through a 0.45 μm filter, and adjusted to pH 7.4. The concentration of stearate in the solution was detected by use of a NEFA C kit. Oleic and linoleate were loaded in the same way. All experimental data on 3T3L1 cells were confirmed using fatty acid free BSA control solutions that were put through the same preparatory procedure described except for the fact that no fatty acid was added. Before the treatment with fatty acid, 3T3L1 preadipocytes were grown to 100%, and were starved in 2% FBS medium for 24 hours.
Caspase-3 activity was measured using the EnzCheck Capase-3 Activity Kit #1 according to the manufacturer's instructions (Molecular Probes Inc. Eugene, Oreg.).

Rho mRNA = experiment: RT-PCR for RhoA, RhoB, RhoC in Hs578T cells; assay type: cell-based, human
Description: In total, 30-40% confluent Hs578T cells were treated with stearate (50 μM) for 48 hours after starvation for 24 hours. Total RNA was extracted and reverse-transcribed as described in RT-PCR for p21^CIP1/WAF1 and p27^[…]. The PCR assay was performed in a volume of 50 μl, containing 4μl DNA template, 45 μl Platinum PCR Supermix (Invitrogen) and 0.2 μM each specific primer. PCR specificity and efficiency were improved by using hot start PCR with 3 min pre-denaturation, at 95° C., and 30 cycles of denaturation (95° C., 30 s), annealing (52° C., 30 s) and 1 min extension (72° C.). The PCR products (20 INS>μl) were analyzed by means of 1% agarose in tris-acetate ethylenediaminetetraacetic acid gel electrophoresis and visualized by ethidium bromide staining under ultraviolet; digital images were analyzed by means of a FUJI Medical System (FUJIFILM) and the bands quantified by Quantity Software (FUJIFILM). […] was used to normalize the variable RNA loading in each sample. The calculated result represents the relative expression levels of target genes compared with its expression in the control group after the value of target genes was normalized to GAPDH expression levels.

3T3L1 preadipocytes = experiment: Cell death and apoptosis of 3T3L1 preadipocytes (trypan blue, LDH, flow cytometry); assay type: cell-based, mouse; settings: 50 μM, vs control
Description: as §1, with “All experimental data on 3T3L1 cells were confirmed using fatty acid free BSA control solutions that were put through the same preparatory procedure described except for the fact that no fatty acid was added.” left out
After treatment, 3T3L1 cells were harvested, washed with cold PBS, and then resuspended in 100 μl annexin-binding buffer (50 mM HEPES, 700 mM NaCl, 12.5 mM CaCl2, pH 7.4). Cell density was determined, and the cells were diluted to 10^6 cells. Then 5μL of Alex Fluo 488 annexin V and 1 μL propidium iodide (PI) were added. Cells were gently oscillated and incubated for 15 min at room temperature. After adding 400 μL of binding buffer to each tube, cells were kept on ice and analyzed by flow cytometry within 1 hour. Cells that stained positive for Alex Fluo 488 annexin V and negative for PI were considered to be apoptotic. Cells that stained positive for both Alex Fluo 488 annexin V and PI were considered either in the end stage of apoptosis, or necrosis. Cells that stained negative for both Alex Fluo 488 annexin V and PI were considered alive and not undergoing measurable apoptosis. A BD LSR II flow cytometer from Becton Dickinson was used in all flow experiments and the data were analyzed with BD FACSDiva™ software V.6.1.3.
Lactate dehydrogenase (LDH) release was measured using a cytotoxicity detection kit, according to the manufacture's protocol. After 3T3L1 cells were treated, 1 ml of cell culture medium was removed and centrifuged. The supernatant was retained for assaying. For determinations, 100 μl of LDH assay reagent was added to 100 μl of supernatant and incubated for 30 min at room temperature in the dark. Absorbance was measured at 490 nm. Background release from culture medium alone was subtracted before reporting. Maximum release was measured after adding 2% Triton X-100 to untreated cells.
After treatment, 3T3L1 cells were harvested and stained with 0.4% trypan blue solution. Cells in the four corners of the grid were counted under a conventional bright field binocular microscope.

CCCCCCCCCCCCCCCCCC(=O)O [stearate, Stearic acid]
Caspase-3 activity (caspase-3): increased significantly
Rho mRNA expression (Rho mRNA; over 24 h): neither EGF nor stearate affected
RhoA mRNA expression (Rho mRNA; stearate 50 μM for 48 h): significantly decreased
RhoB mRNA expression (Rho mRNA; stearate 50 μM for 48 h): remained unchanged
RhoC mRNA expression (Rho mRNA; stearate 50 μM for 48 h): significantly decreased
Total Rho mRNA expression (Rho mRNA; stearate 50 μM for 48 h): significantly decreased
Percentage of dead cells (trypan blue) (3T3L1 preadipocytes; 48 hour treatment): significantly increased
Dead cells (flow cytometry) (3T3L1 preadipocytes; 48 hours): increase
Cytotoxicity (lactate dehydrogenase) (3T3L1 preadipocytes; after 24 hours): significantly increased
Apoptotic cells (flow cytometry) (3T3L1 preadipocytes): significantly increased

Source: patent US20140357706A1, “Stearate Compounds” (THE UAB RESEARCH FOUNDATION, priority 2011, published 2014)
